Source: patent US20140045824A1, “METHOD FOR PRODUCING COMPLEX CRYSTAL AND METHOD FOR SCREENING COMPLEX CRYSTAL” (priority 2011, published 2014)

Key:
Format in all cases: physicochemical
[1] = Cocrystal screening by heat melting 1-menthol (Example 2), powder X-ray diffraction and thermal analysis; set-up: key: A cocrystal was completely formed.; B: A mixture of a cocrystal and the host compound or guest compound was formed.; C: A cocrystal was not formed (a mixture of the host compound and the guest compound was formed); details: host carbamazepine, equimolar guest, 1-menthol added, 10 hours at 80° C.
Procedure: (§1) Carbamazepine and a guest compound shown in Table 4 in an equimolar amount to carbamazepine were weighed and mixed using an agate mortar. […] Thereafter, the obtained mixed powder of carbamazepine, the guest compound, and 1-menthol was heated for 10 hours in an oven at 80° C., and the obtained solids were subjected to powder X-ray diffraction measurement and thermal analysis.

[2] = Cocrystal screening by slurry method (Comparative Examples 4-1 to 4-6), powder X-ray diffraction; set-up: key: A cocrystal was completely formed.; B: A mixture of a cocrystal and the host compound or guest compound was formed.; C: A cocrystal was not formed (a mixture of the host compound and the guest compound was formed); details: host carbamazepine; for Cocrystal formation, Comparative Example 4-6: slurry in acetone; for Cocrystal formation, Comparative Example 4-6 / Cocrystal formation, Comparative Example 4-2 / Cocrystal formation, Comparative Example 4-5 / Cocrystal formation, Comparative Example 4-3 / Cocrystal formation, Comparative Example 4-4 / Cocrystal formation, Comparative Example 4-1: room temperature 7 days; for Cocrystal formation, Comparative Example 4-2: slurry in ethanol; for Cocrystal formation, Comparative Example 4-5: slurry in ethyl acetate; for Cocrystal formation, Comparative Example 4-3: slurry in tetrahydrofuran; for Cocrystal formation, Comparative Example 4-4: slurry in toluene; for Cocrystal formation, Comparative Example 4-1: slurry in water; for Cocrystal formation, Comparative Example 4*: slurry summary: A if a cocrystal was formed in any one of Comparative Examples 4-1 to 4-6
Procedure: 3 mg (0.0127 mmoles) of carbamazepine and a guest compound shown in Table 4 in an equimolar amount (0.0127 mmoles) to carbamazepine were weighed and put into a glass container, to which was then added 60 μL of water. These were shaken at room temperature for 7 days, and the obtained residues were subjected to powder X-ray diffraction measurement. 3 mg (0.0127 mmoles) of carbamazepine and a guest compound shown in Table 4 in an equimolar amount (0.0127 mmoles) to carbamazepine were weighed and put into a glass container, to which was then added 60 μL of ethanol. These were shaken at room temperature for 7 days, and the obtained residues were subjected to powder X-ray diffraction measurement. 3 mg (0.0127 mmoles) of carbamazepine and a guest compound shown in Table 4 in an equimolar amount (0.0127 mmoles) to carbamazepine were weighed and put into a glass container, to which was then added 60 μL of tetrahydrofuran. These were shaken at room temperature for 7 days, and the obtained residues were subjected to powder X-ray diffraction measurement. 3 mg (0.0127 mmoles) of carbamazepine and a guest compound shown in Table 4 in an equimolar amount (0.0127 mmoles) to carbamazepine were weighed and put into a glass container, to which was then added 60 μL of toluene. These were shaken at room temperature for 7 days, and the obtained residues were subjected to powder X-ray diffraction measurement. 3 mg (0.0127 mmoles) of carbamazepine and a guest compound shown in Table 4 in an equimolar amount (0.0127 mmoles) to carbamazepine were weighed and put into a glass container, to which was then added 60 μL of ethyl acetate. These were shaken at room temperature for 7 days, and the obtained residues were subjected to powder X-ray diffraction measurement. 3 mg (0.0127 mmoles) of carbamazepine and a guest compound shown in Table 4 in an equimolar amount (0.0127 mmoles) to carbamazepine were weighed and put into a glass container, to which was then added 60 μL of acetone. These were shaken at room temperature for 7 days, and the obtained residues were subjected to powder X-ray diffraction measurement.

[3] = Cocrystal screening by mixing and grinding method (Comparative Example 5); set-up: key: A cocrystal was completely formed.; B: A mixture of a cocrystal and the host compound or guest compound was formed.; C: A cocrystal was not formed (a mixture of the host compound and the guest compound was formed); details: host carbamazepine, equimolar guest, mixed/ground in agate mortar
Source text: (§2) Carbamazepine and a guest compound shown in Table 4 in an equimolar amount to carbamazepine were weighed and mixed using an agate mortar. At that time, particles having a large size to an extent that they could be distinguished through visual inspection were grinded on the agate mortar. The obtained solids were subjected to powder X-ray diffraction measurement and thermal analysis.

[4] = Cocrystal screening by heat melting 1-menthol (Example 1), powder X-ray diffraction and thermal analysis; set-up: key to Cocrystal formation, Example 1: A cocrystal was completely formed.; B: A mixture of a cocrystal and the host compound or guest compound was formed.; C: A cocrystal was not formed (a mixture of the host compound and the guest compound was formed); details: host theophylline; for Cocrystal formation, Example 1: equimolar guest, 1-menthol added, 4 hours at 80° C.
Procedure: as §1, with “Theophylline” for “Carbamazepine”, “1” for “4”, “theophylline” for “carbamazepine”, “theophylline,” for “carbamazepine,”, “4” for “10”, “solid was” for “solids were”

[5] = Cocrystal screening by co-grinding method (Comparative Example 2); set-up: key: A cocrystal was completely formed.; B: A mixture of a cocrystal and the host compound or guest compound was formed.; C: A cocrystal was not formed (a mixture of the host compound and the guest compound was formed); details: host theophylline, equimolar guest, mixed/ground in agate mortar
Procedure: as §2, with “3 mg (0.0167 mmoles) of theophylline” for “Carbamazepine”, “1” for “4”, “amount (0.0167 mmoles)” for “amount”, “theophylline” for “carbamazepine”

[6] = Cocrystal screening by heating method without menthol (Comparative Example 6); set-up: key: A cocrystal was completely formed.; B: A mixture of a cocrystal and the host compound or guest compound was formed.; C: A cocrystal was not formed (a mixture of the host compound and the guest compound was formed); details: host carbamazepine, equimolar guest, no menthol, 4 hours at 80° C.
Procedure: as §2, with “10 mg of this mixed powder was weighed and put into a test tube and heated for 4 hours in an oven at 80° C., and the” for “The”

[7] = Cocrystal screening by heating method without menthol (Comparative Example 3); set-up: key: A cocrystal was completely formed.; B: A mixture of a cocrystal and the host compound or guest compound was formed.; C: A cocrystal was not formed (a mixture of the host compound and the guest compound was formed); details: host theophylline, equimolar guest, no menthol, 4 hours at 80° C.
Procedure: 3 mg (0.0167 mmoles) of theophylline and a guest compound shown in Table 1 in an equimolar amount (0.0167 mmoles) to theophylline were weighed and mixed using an agate mortar. At that time, particles having a large size to an extent that they could be distinguished through visual inspection were grinded on the agate mortar. 10 mg of this mixed powder was weighed and put into a test tube, followed by heating for 4 hours in an oven at 80° C. The obtained solid was subjected to powder X-ray diffraction measurement and thermal analysis.

Cocrystal formation, Example 2 [1]	Cocrystal formation, Comparative Example 4-6 [2]	Cocrystal formation, Comparative Example 4-2 [2]	Cocrystal formation, Comparative Example 4-5 [2]	Cocrystal formation, Comparative Example 4-3 [2]	Cocrystal formation, Comparative Example 4-4 [2]	Cocrystal formation, Comparative Example 4-1 [2]	Cocrystal formation, Comparative Example 4* [2]	Cocrystal formation, Comparative Example 5 [3]	Cocrystal formation, Example 1 [4]	Cocrystal formation, Comparative Example 2 [5]	Cocrystal formation, Comparative Example 6 [6]	Cocrystal formation, Comparative Example 3 [7]	Compound	Cocrystal with theophylline found, Example 1 ([4]; 1-menthol, 80° C.)
A	C	A	A	A	A	B	A	C	A	C	B	C	NC(=O)c1ccccc1 [Benzamide]	–
C	C	C	C	–	C	C	C	C	C	C	C	C	NCC(=O)O [Glycine]	–
C	C	C	C	–	C	C	C	C	C	C	C	C	CC(C)C[C@H](N)C(=O)O [L-Leucine]	–
A	B	A	A	A	A	C	A	C	A	C	B	C	NC(=O)c1cccnc1 [Nicotinamide]	–

Second part, the compound before the results:

Compound	Cocrystal formation, Example 2 [1]	Cocrystal formation, Comparative Example 4-6 [2]	Cocrystal formation, Comparative Example 4-2 [2]	Cocrystal formation, Comparative Example 4-5 [2]	Cocrystal formation, Comparative Example 4-3 [2]	Cocrystal formation, Comparative Example 4-4 [2]	Cocrystal formation, Comparative Example 4-1 [2]	Cocrystal formation, Comparative Example 4* [2]	Cocrystal formation, Comparative Example 5 [3]	Cocrystal formation, Example 1 [4]	Cocrystal formation, Comparative Example 2 [5]	Cocrystal formation, Comparative Example 6 [6]	Cocrystal formation, Comparative Example 3 [7]	Cocrystal with theophylline found, Example 1 ([4]; 1-menthol, 80° C.)
O=C(O)c1ccccc1 [Benzoic acid]	A	C	C	C	–	C	C	C	C	A	C	B	B	–
O=C(O)CC(O)(CC(=O)O)C(=O)O [Citric acid]	B	C	C	–	–	C	C	C	C	A	C	B	B	–
O=S(=O)(O)CCS(=O)(=O)O [Ethanedisulfonic acid]	A	A	A	A	A	A	C	A	C	A	A	B	A	–
O=C(O)CCCC(=O)O [Glutaric acid]	A	C	C	C	–	C	C	C	C	A	C	B	B	–
N=C(N)NCCC[C@H](N)C(=O)O [L(+)-Arginine]	C	C	C	C	–	C	C	C	C	C	C	C	C	could not be found out
O=C(O)/C=C\C(=O)O [Maleic acid]	A	C	A	A	A	A	A	A	C	A	C	C	B	–
